Measured values reported in ChEMBL document CHEMBL4840338, “Cudraflavone C from Artocarpus hirsutus as a Promising Inhibitor of Pathogenic, Multidrug-Resistant S. aureus, Persisters, and Biofilms: A New Insight into a Rational Explanation of Traditional Wisdom” (J Nat Prod, 2021).
Converted amounts (≈) assume the structure as drawn.

What was measured:
Type in all cases: functional
Enterococcus [1] = test: Antibacterial activity against vancomycin-susceptible Enterococcus NR 31885 assessed as bacterial growth inhibition incubated for 16 to 18 hrs by broth microdilution method; conditions: time 16-18 hrs
Staphylococcus aureus [2] = test: Antibacterial activity against Staphylococcus aureus ATCC 29213 assessed as fractional inhibitory concentration in presence of linezolid incubated for 24 hrs by checkerboard assay
Staphylococcus aureus [3] = test: Antibacterial activity against Staphylococcus aureus ATCC 29213 assessed as time for post-antibiotic effect at 1XMIC incubated for 1 hr followed by drug wash-out and measured every single 1 hr
Staphylococcus aureus [4] = test: Bactericidal activity against Staphylococcus aureus ATCC 29213 assessed as reduction in bacterial load at 1X MIC preincubated for 6 hrs followed by subculturing on TSA plate for 18 to 20 hrs by time-kill assay; conditions: time 24-26 hrs
Staphylococcus aureus [5] = test: Synergistic bactericidal activity against Staphylococcus aureus ATCC 29213 assessed as reduction in bacterial load at 1X MIC preincubated for 6 hrs in presence of gentamycin followed by subculturing on TSA plate for 18 to 20 hrs by time-kill assay; conditions: time 24-26 hrs
Staphylococcus aureus [6] = test: Antibacterial activity against methicillin-resistant Staphylococcus aureus NRS 10194 assessed as bacterial growth inhibition incubated for 16 to 18 hrs by broth microdilution method; conditions: time 16-18 hrs
Staphylococcus aureus [7] = test: Antibacterial activity against Staphylococcus aureus ATCC 29213 assessed as bacterial growth inhibition in presence of vancomycin incubated for 24 hrs by checkerboard assay
Staphylococcus aureus [8] = test: Synergistic antibacterial activity against Staphylococcus aureus ATCC 29213 assessed as fractional inhibitory concentration in presence of gentamycin incubated for 24 hrs by checkerboard assay
Staphylococcus aureus [9] = test: Antibacterial activity against Staphylococcus aureus ATCC 29213 assessed as fractional inhibitory concentration in presence of meropenem incubated for 24 hrs by checkerboard assay
Acinetobacter baumannii = test: Antibacterial activity against Acinetobacter baumannii BAA 1605 assessed as bacterial growth inhibition incubated for 16 to 18 hrs by broth microdilution method; conditions: time 16-18 hrs
Enterococcus [10] = test: Antibacterial activity against vancomycin-susceptible Enterococcus NR 31887 assessed as bacterial growth inhibition incubated for 16 to 18 hrs by broth microdilution method; conditions: time 16-18 hrs
Staphylococcus aureus [11] = test: Antibiofilm activity against Staphylococcus aureus ATCC 29213 assessed as reduction in preformed bacterial biofilm at 1XMIC incubated for 24 hrs by crystal violet staining based microtiter plate reader assay
Staphylococcus aureus [12] = test: Antibacterial activity against vancomycin-resistant Staphylococcus aureus VRS12 assessed as bacterial growth inhibition incubated for 16 to 18 hrs by broth microdilution method; conditions: time 16-18 hrs
Staphylococcus aureus [13] = test: Antibacterial activity against methicillin-resistant Staphylococcus aureus NRS 10100 assessed as bacterial growth inhibition incubated for 16 to 18 hrs by broth microdilution method; conditions: time 16-18 hrs
Staphylococcus aureus [14] = test: Antibacterial activity against Staphylococcus aureus ATCC 29213 infected in mouse J774.A1 assessed as reduction in intracellular bacterial burden at 5XMIC incubated for 24 hrs followed by replating on TSA plate for 24 hrs by intracellular killing assay; conditions: time 48 hrs
Staphylococcus aureus [15] = test: Antibacterial activity against Staphylococcus aureus ATCC 29213 assessed as bacterial growth inhibition in presence of gentamycin incubated for 24 hrs by checkerboard assay
Staphylococcus aureus [16] = test: Antibacterial activity against Staphylococcus aureus ATCC 29213 assessed as bacterial growth inhibition in presence of meropenem incubated for 24 hrs by checkerboard assay
Staphylococcus aureus [17] = test: Antibacterial activity against Staphylococcus aureus ATCC 29213 assessed as fractional inhibitory concentration in presence of minocycline incubated for 24 hrs by checkerboard assay
Enterococcus [18] = test: Antibacterial activity against vancomycin-resistant Enterococcus NR 31912 assessed as bacterial growth inhibition incubated for 16 to 18 hrs by broth microdilution method; conditions: time 16-18 hrs
Staphylococcus aureus [19] = test: Antibacterial activity against methicillin-resistant Staphylococcus aureus NRS 10193 assessed as bacterial growth inhibition incubated for 16 to 18 hrs by broth microdilution method; conditions: time 16-18 hrs
Staphylococcus aureus [20] = test: Antibacterial activity against methicillin-resistant Staphylococcus aureus NRS 10119 assessed as bacterial growth inhibition incubated for 16 to 18 hrs by broth microdilution method; conditions: time 16-18 hrs
Staphylococcus aureus [21] = test: Antibacterial activity against methicillin-resistant Staphylococcus aureus NRS 10191 assessed as bacterial growth inhibition incubated for 16 to 18 hrs by broth microdilution method; conditions: time 16-18 hrs

Work on `CC(C)=CCc1c(O)cc2oc(-c3ccc(O)cc3O)c(CC=C(C)C)c(=O)c2c1O` [CUDRAFLAVONE C] yielded an MIC (Enterococcus [1]) of 4 µg/mL (≈ 9.47 µM), an FIC (Staphylococcus aureus [2]) of 1.5 and a Time (Staphylococcus aureus [3]) of 2 h. The Activity (Staphylococcus aureus [4]) was 4 log10CFU/ml, the Activity (Staphylococcus aureus [5]) was 9 log10CFU/ml and the MIC (Staphylococcus aureus [6]) was 4 µg/mL (≈ 9.47 µM). The MIC (Staphylococcus aureus [7]) was 2 µg/mL, the FIC (Staphylococcus aureus [8]) was 0.135 and the FIC (Staphylococcus aureus [9]) was 1.5. The MIC (Acinetobacter baumannii) was greater than 64 µg/mL, the MIC (Enterococcus [10]) was 4 µg/mL (≈ 9.47 µM) and the “inhibition (INH)” value (Staphylococcus aureus [11]) was 8%. For the same molecule, the MIC (Staphylococcus aureus [12]) was 4 µg/mL (≈ 9.47 µM), the MIC (Staphylococcus aureus [13]) was 4 µg/mL (≈ 9.47 µM) and the Activity (Staphylococcus aureus [14]) was 2 log10CFU/ml. For the same molecule, the MIC (Staphylococcus aureus [15]) was 0.06 µg/mL, the MIC (Staphylococcus aureus [16]) was 2 µg/mL and the FIC (Staphylococcus aureus [17]) was 1.5. For the same molecule, the MIC (Enterococcus [18]) was 4 µg/mL (≈ 9.47 µM), the MIC (Staphylococcus aureus [19]) was 4 µg/mL (≈ 9.47 µM) and the MIC (Staphylococcus aureus [20]) was 4 µg/mL (≈ 9.47 µM). It also gave an MIC (Staphylococcus aureus [21]) of 4 µg/mL (≈ 9.47 µM).
